Test results from ChEMBL document CHEMBL3774310, “Discovery of antitumor anthra[2,3-b]furan-3-carboxamides: Optimization of synthesis and evaluation of antitumor properties” (Eur J Med Chem, 2016).
Activity calls are given as the source filed them. The calls are words filed in the database; no cut-off is given here.

Assays:
L1210 = test: cells; settings: Mus musculus, L1210, 48 h
Description: Antiproliferative activity against mouse L1210 cells after 48 hrs by MTT assay

HeLa = test: Antiproliferative activity against human HeLa cells after 72 hrs by MTT assay; assay type: functional, cell-based
cells = settings: Homo sapiens, HCT-116, 72 h
Description: Antiproliferative activity against human HCT116 cells after 72 hrs by MTT assay

[1] = Antiproliferative activity against human K562/4 cells after 72 hrs by MTT assay; settings: K562/4, 72 h
K562 [2] = test: cells; settings: Homo sapiens, K562, 72 h
Description: Antiproliferative activity against human K562 cells after 72 hrs by MTT assay

[3] = biological target: T1, DNA topoisomerase 1 (Homo sapiens) (UniProt P11387); test: Poisoning activity at topoisomerase 1 (unknown origin) using 3'-[32P]dGTP labelled 117bp oligonucleotide assessed as induction of DNA cleavage incubated for 20 mins by SDS-PAGE analysis
T1 sequence (whole entry): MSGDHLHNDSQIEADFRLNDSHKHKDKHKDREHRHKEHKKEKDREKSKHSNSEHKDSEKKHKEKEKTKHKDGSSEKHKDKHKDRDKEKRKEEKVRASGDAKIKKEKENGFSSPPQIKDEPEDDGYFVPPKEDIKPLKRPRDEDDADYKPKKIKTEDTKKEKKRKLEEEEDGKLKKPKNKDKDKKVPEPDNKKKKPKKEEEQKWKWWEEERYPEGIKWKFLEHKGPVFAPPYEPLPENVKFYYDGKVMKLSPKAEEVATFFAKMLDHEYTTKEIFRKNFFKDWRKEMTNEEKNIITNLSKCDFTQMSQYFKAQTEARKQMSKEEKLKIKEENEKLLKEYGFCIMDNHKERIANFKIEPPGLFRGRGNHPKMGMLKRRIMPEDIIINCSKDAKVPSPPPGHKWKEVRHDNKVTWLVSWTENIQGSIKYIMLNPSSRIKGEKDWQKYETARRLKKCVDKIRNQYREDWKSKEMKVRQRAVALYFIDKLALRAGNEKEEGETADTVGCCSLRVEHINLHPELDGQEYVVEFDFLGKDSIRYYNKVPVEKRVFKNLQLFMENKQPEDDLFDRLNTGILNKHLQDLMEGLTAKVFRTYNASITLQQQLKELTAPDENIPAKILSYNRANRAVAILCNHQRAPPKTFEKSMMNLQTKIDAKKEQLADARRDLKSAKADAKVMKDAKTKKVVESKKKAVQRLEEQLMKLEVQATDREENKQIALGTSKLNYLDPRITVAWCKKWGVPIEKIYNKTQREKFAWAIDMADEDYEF

[4] = biological target: T1, DNA topoisomerase 1 (Homo sapiens); test: Poisoning activity at topoisomerase 1 (unknown origin) using 3'-[32P]dGTP labelled 117bp oligonucleotide assessed as induction of DNA cleavage at 1 uM incubated for 20 mins by SDS-PAGE analysis
K562/4 = test: Binding affinity to P-gp in human K562/4 cells assessed as drug accumulation at 1 uM incubated for 1 to 24 hrs by flow cytometry; assay type: cell-based
K562 [5] = test: Binding affinity to P-gp in human K562 cells assessed as drug accumulation at 1 uM incubated for 1 to 24 hrs by flow cytometry; assay type: cell-based
Calf thymus DNA = test: Binding affinity to calf thymus DNA at 5 uM by fluorescence assay; assay type: nucleic-acid assay; settings: Bos taurus

Row | Structure (SMILES) | IC50 (L1210) | IC50 (HeLa) | IC50 (cells) | IC50 [1] | IC50 (K562 [2]) | Activity [3] | Activity [4] | Activity (K562/4) | Activity (K562 [5]) | Activity (Calf thymus DNA)
1 | Cc1oc2c(O)c3c(c(O)c2c1C(=O)NC1CCNCC1)C(=O)c1ccccc1C3=O | 5.1 µM | 11 µM | 1200 nM | 4000 nM | 2700 nM | – | – | – | – | –
2 | Cc1oc2c(O)c3c(c(O)c2c1C(=O)N[C@H]1CCNC1)C(=O)c1ccccc1C3=O | 6.5 µM | 64 µM | 250 nM | 800 nM | 750 nM | – | – | – | – | –
3 | Cc1oc2c(O)c3c(c(O)c2c1C(=O)NC1CN2CCC1CC2)C(=O)c1ccccc1C3=O (centres undefined) | 2.4 µM | 12 µM | 900 nM | 650 nM | 600 nM | – | – | – | – | –
4 | Cc1oc2c(O)c3c(c(O)c2c1C(=O)N[C@@H]1CCNC1)C(=O)c1ccccc1C3=O | 5.4 µM | 9.5 µM | 300 nM | 750 nM | 700 nM | – | – | – | – | –
5 | O=C1c2ccccc2C(=O)c2c1c(O)c1[nH]cc(CN[C@@H]3CCNC3)c1c2O | 0.07 µM | – | 1600 nM | 400 nM | – | Active | – | – | – | –
6 | Cc1oc2c(O)c3c(c(O)c2c1C(=O)N1CCCC(N)C1)C(=O)c1ccccc1C3=O (centres undefined) | 5.6 µM | 1.4 µM | 1500 nM | 700 nM | 850 nM | – | – | – | – | –
7 | Cc1oc2c(O)c3c(c(O)c2c1C(=O)N1CCC(N)CC1)C(=O)c1ccccc1C3=O | 13 µM | 9.7 µM | 2000 nM | 400 nM | 2100 nM | – | – | – | – | –
8 | Cc1oc2c(O)c3c(c(O)c2c1C(=O)N1CCN(C)CC1)C(=O)c1ccccc1C3=O | 82 µM | 104 µM | 11500 nM | 5900 nM | 1600 nM | – | – | – | – | –
9 | Cc1oc2c(O)c3c(c(O)c2c1C(=O)N1CCNC(C)C1)C(=O)c1ccccc1C3=O (centres undefined) | 3.7 µM | 0.9 µM | 1300 nM | 3000 nM | 900 nM | – | – | – | – | –
10 | CC[C@@]1(O)C(=O)OCc2c1cc1n(c2=O)Cc2cc3ccccc3nc2-1 | – | – | – | – | – | – | Active | – | – | –
11 | Cc1oc2c(O)c3c(c(O)c2c1C(=O)N1CCNCC1C)C(=O)c1ccccc1C3=O (centres undefined) | 3.7 µM | 0.7 µM | 1600 nM | 4800 nM | 1100 nM | – | – | – | – | –
12 | Cc1oc2c(O)c3c(c(O)c2c1C(=O)N1CCNCC1)C(=O)c1ccccc1C3=O | 4.1 µM | 3.1 µM | 2300 nM | 2800 nM | 1300 nM | – | – | – | – | –
13 | Cc1oc2c(O)c3c(c(O)c2c1C(=O)NC1CCCNC1)C(=O)c1ccccc1C3=O (centres undefined) | 3 µM | 3.4 µM | 1600 nM | 350 nM | 600 nM | – | – | – | – | –
14 | COc1cc2c3c(n(CCCNCCO)c(=O)c2cc1OC)-c1cc2c(cc1C3=O)OCO2 | – | – | – | – | – | – | Active | – | – | –
15 | COc1cccc2c1C(=O)c1c(O)c3c(c(O)c1C2=O)C[C@@](O)(C(=O)CO)C[C@@H]3O[C@H]1C[C@H](N)[C@H](O)[C@H](C)O1 | – | – | – | – | – | – | – | Active | inactive | Active
